System: HBV
Experiment: HBV-DNA antiviral assay using HepG2.117 cells (intracellular HBV DNA by qPCR)
Type: cell-based, genotype D HBV
Conditions: Hepatitis B virus, 72 h, HBV DNA inhibition, 3 days incubation, 2% DMSO
Summary of the method: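 HepG2.117 cells (stable genotype D HBV, Tet-off) seeded without doxycycline, treated next day with 9-point 4-fold dilutions in 2% DMSO for 3 days at 37° C. Intracellular HBV DNA quantified by qPCR against a standard curve; viability by CellTiter-Glo ATP. EC50, EC90, CC50 from variable-slope dose-response fits versus DMSO control.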

**Q.** Which EC50 does the source give for `CC(C)Cc1cnn2c3c(c(=O)n(-c4ccc5c(c4)nnn5CCO)c12)C[C@H](C)N(C(=O)c1ccc(Br)c(C(F)(F)F)c1)C3` (stereo in doubt) [Compound 108b, rac-(11S)-12-[4-bromo-3-(trifluoromethyl)benzoyl]-7-[1-(2-hydroxyethyl)benzotriazol-5-yl]-5-isobutyl-11-methyl-2,3,7,12-tetrazatricyclo[7.4.0.0^2,6]trideca-1(9),3,5-trien-8-one] here?
**A.** The EC50 was 50 to 500 nM.

**Q.** For `C[C@@H]1Cc2c(n3ncc(Cc4ccccc4)c3n(-c3ccc(-c4nnc(C(F)(F)F)[nH]4)cc3)c2=O)CN1C(=O)c1ccc(Br)c(C(F)(F)F)c1` (stereo in doubt) [Compound 74a, rac-(11R)-5-benzyl-12-[4-bromo-3-(trifluoromethyl)benzoyl]-11-methyl-7-[4-[5-(trifluoromethyl)-4H-1,2,4-triazol-3-yl]phenyl]-2,3,7,12-tetrazatricyclo[7.4.0.0^2,6]trideca-1(9),3,5-trien-8-one], which EC50 is on record?
**A.** The EC50 was less than 50 nM.

**Q.** For `C[C@@H]1Cc2c(n3ncc(Cc4ccccc4)c3n(-c3ccc(-c4cnnn4C)cc3)c2=O)CN1C(=O)c1ccc(Br)c(C(F)(F)F)c1` (stereo in doubt) [Compound 105a, rac-(11R)-5-benzyl-12-[4-bromo-3-(trifluoromethyl)benzoyl]-11-methyl-7-[4-(3-methyltriazol-4-yl)phenyl]-2,3,7,12-tetrazatricyclo[7.4.0.0^2,6]trideca-1(9),3,5-trien-8-one], which EC50 is on record?
**A.** The EC50 was less than 50 nM.

**Q.** `Cn1nnnc1-c1ccc(-n2c(=O)c3c(n4ncc(Cc5ccccc5)c24)CN(C(=O)c2ccc(Br)c(Cl)c2)CC3)cc1` [Compound 8, 5-benzyl-12-(4-bromo-3-chloro-benzoyl)-7-[4-(1-methyltetrazol-5-yl)phenyl]-2,3,7,12-tetrazatricyclo[7.4.0.0^2,6]trideca-1(9),3,5-trien-8-one] was tested. Which EC50 did it give?
**A.** Its EC50 is less than 50 nM.

**Q.** `CNC(=O)c1ccc(-n2c(=O)c3c(n4ncc(CC5CCC5)c24)CN(C(=O)c2ccc(Br)c(C(F)(F)F)c2)[C@H](C)C3)cc1` (stereo in doubt) [Compound 37a, N-methyl-4-[rac-(11R)-12-[4-bromo-3-(trifluoromethyl)benzoyl]-5-(cyclobutylmethyl)-11-methyl-8-oxo-2,3,7,12-tetrazatricyclo[7.4.0.0^2,6]trideca-1(9),3,5-trien-7-yl]benzamide] was tested. Which EC50 did it give?
**A.** The EC50 was less than 50 nM.

**Q.** How did the EC50 turn out when `CNC(=O)c1ccc(-n2c(=O)c3c(n4ncc(CC5CC5)c24)CN(C(=O)c2ccc(Br)c(Cl)c2)[C@@H](C)C3)cc1` (stereo in doubt) [Compound 22b, N-methyl-4-[rac-(11S)-12-[4-bromo-3-chlorobenzoyl]-5-(cyclopropylmethyl)-11-methyl-8-oxo-2,3,7,12-tetrazatricyclo[7.4.0.0^2,6]trideca-1(9),3,5-trien-7-yl]benzamide] was run?
**A.** The EC50 was less than 50 nM.

**Q.** For `CNC(=O)c1ccc(-n2c(=O)c3c(n4ncc(Cc5ccccc5)c24)CN(C(=O)c2ccc(Br)c(C(F)(F)F)c2)[C@@H](C2CC2)C3)cc1` (stereo in doubt) [Compound 104a, N-methyl-4-[rac-(11R)-5-benzyl-12-[4-bromo-3-(trifluoromethyl)benzoyl]-11-cyclopropyl-8-oxo-2,3,7,12-tetrazatricyclo[7.4.0.0^2,6]trideca-1(9),3,5-trien-7-yl]benzamide], which EC50 is on record?
**A.** The EC50 was less than 50 nM.

**Q.** `Cc1nn[nH]c1-c1ccc(-n2c(=O)c3c(n4ncc(CC(C)C)c24)CN(C(=O)c2ccc(Br)c(C(F)(F)F)c2)[C@H](C)C3)cc1` (stereo in doubt) [Compound 62a, rac-(11R)-12-[4-bromo-3-(trifluoromethyl)benzoyl]-5-isobutyl-11-methyl-7-[4-(4-methyl-1H-triazol-5-yl)phenyl]-2,3,7,12-tetrazatricyclo[7.4.0.0^2,6]trideca-1(9),3,5-trien-8-one] was tested. Which EC50 did it give?
**A.** The EC50 was less than 50 nM.

Reference: patent publication US11820773B2, “Tricyclic compounds” (ALIGOS THERAPEUTICS, INC., priority 2020, dated 2023)
